Laboratory results from patent publication US20160287712A1, “FATTY ACID NIACIN CONJUGATES” (priority 2013, published 2016).
Read-outs that look alike come from different tables or passages of the source.

Legend:
[1] = Pharmacokinetics after oral administration to rats with jugular vein and portal vein catheters; assay type: in vivo, Male Sprague-Dawley rats; conditions: rat
Experimental: Pharmacokinetic studies were conducted in male Sprague-Dawley rats, with an approximate weight of 250-300 g at dose initiation. All animals were instrumented with a jugular vein catheter (JVC) and a portal vein catheter (PVC) to facilitate blood collections. Jugular and Portal vein catheterizations were conducted at Charles River Laboratories under protocols approved by the Institutional Animal Care and Use Committee (IACUC) of Charles River Lab (Approved PO 4122010).
Animals were anaesthetized with ketamine and xylazine administered intraperitoneally and provided buprenorphine subcutaneously. The skin overlying the scapula and over the right jugular vein were shaved and skin aseptically prepared. A 1.1.5 cm cranial-caudal incision, followed by blunt dissection was performed to expose the jugular vein, which was then catheterized using either a PU or blended catheter. After fixation of the catheter, it was flushed with sterile saline to verify patency. The distal end of the catheter was then tunneled subcutaneously to the dorsal scapular region where it was exteriorized. Catheter patency was verified again. The catheter was then locked with 50% heparinized dextrose solution. The exteriorized end of the catheter was sealed with a stainless steel plug. The skin incision was then closed with wound clips.
Animals were anaesthetized with ketamine and xylazine administered intraperitoneally. A mid-line incision 1-2 cm was made in the abdominal cavity and the portal vein was detached near the liver. To prevent bleeding, the portal vein was ligated temporarily as the catheter was inserted. The cathether (3.5 Fr polyurethane tube, Access™ technologies Inc.) was inserted immediately and fixed by a purse-string suture on the portal vein. The time to reperfusion was about 1 min after intercepted blood flow. This method for insertion of catheter can avoid the occlusion of the vessel. In addition, a catheter with trumpet-shaped opening was used to prevent the catheter from slipping out of the vessel with minimizing the effect of blood flow. Another end of the catheter was passed subcutaneously to the dorsal back of the neck and the laparotomy was closed in two layers, with a 4/0 silk blade to the muscle, and a surgical clip to close the skin.
Male Sprague-Dawley rats instrumented with jugular vein catheter and portal vein catheter were separated into groups of 4. The test compound was administered by oral gavage at dose of 30 mg/kg in a vehicle consisting of Tween (specifically Tween 80), Peceol, PEG400 (at a ratio of 40:50:10) along with 0.2% tocopherol and emulsified in water, with a water to oil ratio of 66:1 (the dose concentration was 6 mg/mL and the dose volume was 5 mL/kg). Whole blood (0.3 mL) was collected at both the jugular and portal vein at the following time points: 10, 20, 40 min, 1, 1.5, 2 and 4 hours post-dose. Blood samples were placed into tubes containing sodium heparin anticoagulant. Each whole blood sample was placed on ice until sample could be centrifuged at 2200×g at 5° C.±3° C. for 10 min to isolate plasma.
The amount of the various metabolites and parent compound present in the plasma samples were then analyzed by LC/MS/MS using an Agilent 6410 Triple Quadrupole with an ESI interface. The column used was a Phenomenex Gemini C6 Phenyl 110A 50×4.6 mm, 1.8 μM. The mobile phase used was water and methanol, each containing 0.1% formic acid. Data was further analyzed by WinNolin Software. For a given test compound, the following compounds were quantitated from the collected plasma samples: 1) test compound, 2) niacin linker, 3) linker-EPA, 4) niacin and 5) nicotinuric acid.
In order to quantitate each of these compounds in plasma, standard curves in blank plasma were generated using the appropriate internal standard (the final concentration range used were 8333 ng/mL, 2083 ng/mL, 521 ng/mL, 130.2 ng/mL, 32.5 ng/mL, 8.1 ng/mL, 2.0 ng/mL and 0.5 ng/mL). […]

[2] = Compound hydrolysis and tissue distribution: test compound and metabolites in liver after oral dosing for 3.5 days; assay type: in vivo, Male Sprague-Dawley rats; conditions: for concentration at 4 h / Amount of Analyte: Niacin-linker Metabolite / Amount of Analyte: Nicotinuric Acid / Amount of Analyte: Linker-Fatty Acid Metabolite: male, Sprague-Dawley; for concentration at 4 h: liver homogenate, rat liver, 100 mg/kg oral gavage every 12 hours, 7 doses, 4 hours after last dose, read-out: Amount of Analyte: Intact Test Compound; for Amount of Analyte: Niacin-linker Metabolite / Amount of Analyte: Nicotinuric Acid / Amount of Analyte: Linker-Fatty Acid Metabolite: 4 h
Experimental: The amount of test compound and its metabolites in the liver provides information on distribution of such compounds within the rat, as well as information on stability of the test compound, such as resistance of the test compound to hydrolytic degradation. […] A test compound was administered to a single group of Male Sprague-Dawley rats. Each group contained 6 animals. […] Two additional animals were administered vehicle alone as controls. Animals were dosed every 12 hours for 3.5 days (7 doses total). Rats were fasted overnight after the PM dose on day 3 of study. On day 4 the rats were euthanized 4 hours after the last dose. Vehicle treated rats were also fasted prior to collection of tissue samples on day 4. At 4 hours after last dose, the livers were excised, rinsed and weight of each tissue recorded. Livers were snap frozen in liquid nitrogen and stored in 50 mL polypropylene conical centrifuge tubes at −80° C. Liver tissue was homogenized in PBS at a volume of 2 mL per gram of tissue. The amount of test compound and various metabolites of the test compound present in the liver homogenates were analyzed by LC/MS/MS as done in the previous example. […] In order to quantitate each of these compounds in the homogenates, standard curves in blank liver homogenates were generated using the appropriate internal standard.

[3] = male, Sprague-Dawley, in vivo, po, 30 mg/kg, Peripheral AUClast, parent compound
[4] = male, Sprague-Dawley, in vivo, po, 30 mg/kg, Peripheral Cmax, parent compound
[5] = male, Sprague-Dawley, in vivo, po, 30 mg/kg, Portal AUClast, parent compound
[6] = male, Sprague-Dawley, in vivo, po, 30 mg/kg, Portal Cmax, parent compound
[7] = male, Sprague-Dawley, in vivo, po, 30 mg/kg

Compound | AUC(0-t) [1, 3] | Cmax [1, 4] | AUC(0-t) [1, 5] | Cmax [1, 6] | ratio of Portal AUClast of Parent compound to Portal AUClast of Niacin-linker metabolite [1, 7] | Amount of Analyte: Niacin-linker Metabolite ([2]; rat, in vivo, po, 100 mg/kg) | further results
CC/C=C\C/C=C\C/C=C\C/C=C\C/C=C\CCCC(=O)N(C)CCNC(=O)c1cccnc1 [Compound I-15, N-(2-((5Z,8Z,11Z,14Z,17Z)—N-methylicosa-5,8,11,14,17-pentaenamido)ethyl)nicotinamide] | 767 ng·h/mL | 360 ng/mL | 5060 ng·h/mL | 4520 ng/mL |  |  | concentration at 4 h [2]: 459 ng/g
CC/C=C\C/C=C\C/C=C\C/C=C\C/C=C\CCCC(=O)N[C@H]1CC[C@H](CNC(=O)c2cccnc2)CC1 [Compound I-41, N-(((1R,4R)-4-((5Z,8Z,11Z,14Z,17Z)-icosa-5,8,11,14,17-pentaenamido)cyclohexyl)methyl)nicotinamide] |  |  |  |  |  |  | Peripheral AUClast, parent compound ([1]; in vivo, po, 30 mg/kg): 218 ng·h/mL; Portal AUClast, parent compound ([1]; in vivo, po, 30 mg/kg): 2,507 hr*ng/mL; ratio of Portal AUClast of Parent compound to Portal AUClast of Niacin-linker metabolite ([1]; in vivo, po, 30 mg/kg): 1.3
CC/C=C\C/C=C\C/C=C\C/C=C\C/C=C\C/C=C\CCC(=O)NCCNC(=O)c1cccnc1 [Compound I-7, N-(2-(4Z,7Z,10Z,13Z,16Z,19Z)-docosa-4,7,10,13,16,19-hexaenamidoethyl)nicotinamide, reference compound] |  |  |  |  |  |  | Cmax ([1]; male, Sprague-Dawley, jugular vein plasma, po, 30 mg/kg, 30 mg/kg oral gavage, jugular vein plasma, read-out: Peripheral Cmax, parent compound): 238 ng/mL; AUC(0-t) ([1]; male, Sprague-Dawley, jugular vein plasma, po, 30 mg/kg, 30 mg/kg oral gavage, jugular vein plasma, t=10 min to 4 hrs, read-out: Peripheral AUClast, parent compound): 353 ng·h/mL; Cmax ([1]; male, Sprague-Dawley, portal vein plasma, po, 30 mg/kg, 30 mg/kg oral gavage, portal vein plasma, read-out: Portal Cmax, parent compound): 1850 ng/mL; AUC(0-t) ([1]; male, Sprague-Dawley, portal vein plasma, po, 30 mg/kg, 30 mg/kg oral gavage, portal vein plasma, t=10 min to 4 hrs, read-out: Portal AUClast, parent compound): 1460 ng·h/mL; portal concentration of the parent compound compared to compounds I-15 and I-24 ([1]; 30 mg/kg oral gavage): lower; concentration at 4 h [2]: 6.7 ng/g
CC/C=C\C/C=C\C/C=C\C/C=C\C/C=C\CCCC(=O)N[C@H]1CCN(C(=O)c2cccnc2)C1 [Compound I-23, (5Z,8Z,11Z,14Z,17Z)—N—((S)-1-nicotinoylpyrrolidin-3-yl)icosa-5,8,11,14,17-pentaenamide] | 60 ng·h/mL | 68 ng/mL | 1440 ng·h/mL | 2600 ng/mL | 0.17 | 2290 nanograms of analyte per gram of tissue homogenate | 
CC/C=C\C/C=C\C/C=C\C/C=C\C/C=C\CCCC(=O)NCCNC(=O)c1cccnc1 [Compound I-8, N-(2-(5Z,8Z,11Z,14Z,17Z)-eicosa-5,8,11,14,17-pentaenamidoethyl)nicotinamide, reference compound] | 81 ng·h/mL | 78 ng/mL | 662 ng·h/mL | 756 ng/mL | 0.06 | 2351 nanograms of analyte per gram of tissue homogenate | Amount of Analyte: Nicotinuric Acid ([2]; rat, in vivo, po, 100 mg/kg): 785 nanograms of analyte per gram of tissue homogenate
CC/C=C\C/C=C\C/C=C\C/C=C\C/C=C\CCCC(=O)N1CC[C@H](NC(=O)c2cccnc2)C1 [Compound I-24, N—((S)-1-((5Z,8Z,11Z,14Z,17Z)-icosa-5,8,11,14,17-pentaenoyl)pyrrolidin-3-yl)nicotinamide] | 964 ng·h/mL | 565 ng/mL | 6640 ng·h/mL | 5320 ng/mL | 41 | 2826 nanograms of analyte per gram of tissue homogenate | Amount of Analyte: Linker-Fatty Acid Metabolite ([2]; rat, in vivo, po, 100 mg/kg): 77.2 nanograms of analyte per gram of tissue homogenate; amount of intact test compound present in the liver compared to other compounds of Table 9 ([2]; rat, in vivo, po, 100 mg/kg): significantly larger
CC/C=C\C/C=C\C/C=C\C/C=C\C/C=C\CCCC(=O)N1CCN(C(=O)c2cccnc2)CC1 [Compound I-13, (5Z,8Z,11Z,14Z,17Z)-1-(4-nicotinoylpiperazin-1-yl)icosa-5,8,11,14,17-pentaen-1-one] | 142 ng·h/mL | 80 ng/mL | 3560 ng·h/mL | 6070 ng/mL | 0.83 | 2023 nanograms of analyte per gram of tissue homogenate | Amount of Analyte: Linker-Fatty Acid Metabolite ([2]; rat, in vivo, po, 100 mg/kg): 15782 nanograms of analyte per gram of tissue homogenate; Amount of Analyte: Nicotinuric Acid ([2]; rat, in vivo, po, 100 mg/kg): 15.1 nanograms of analyte per gram of tissue homogenate
